The values that follow come from paper PMC7982320 (Pharmacology Research & Perspectives, 2021).

Common to all, as to assay type: in vitro ADME
One data set has as its target CYP2D6 (Homo sapiens, UniProt P10635). Kind of data set: CYP inhibition in pooled human liver microsomes, dextromethorphan probe. To be noted: read-out: IC50, No preincubation; CYP2D6, pooled HLMs, n = 3.
In another data set the target is CYP2C19 (Homo sapiens, UniProt P33261). Put plainly: CYP inhibition in pooled human liver microsomes, S-mephenytoin probe. In general terms: Liver microsomes are a subcellular fraction often used to study metabolism.
Sequence of CYP2C19 (P33261 whole entry): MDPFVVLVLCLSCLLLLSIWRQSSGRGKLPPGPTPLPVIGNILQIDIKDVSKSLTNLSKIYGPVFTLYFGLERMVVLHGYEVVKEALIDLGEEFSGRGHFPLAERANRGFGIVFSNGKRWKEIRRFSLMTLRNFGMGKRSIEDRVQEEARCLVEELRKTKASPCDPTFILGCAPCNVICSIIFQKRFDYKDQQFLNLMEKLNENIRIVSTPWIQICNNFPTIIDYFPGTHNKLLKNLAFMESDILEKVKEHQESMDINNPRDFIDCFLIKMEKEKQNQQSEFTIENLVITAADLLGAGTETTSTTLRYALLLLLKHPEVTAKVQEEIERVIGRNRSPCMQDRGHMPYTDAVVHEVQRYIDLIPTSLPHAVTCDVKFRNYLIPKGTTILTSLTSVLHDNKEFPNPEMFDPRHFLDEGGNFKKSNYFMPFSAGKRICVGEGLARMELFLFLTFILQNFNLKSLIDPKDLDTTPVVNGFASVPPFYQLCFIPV
The target of the next data set is T1, human OCT2 (Homo sapiens, UniProt O15244).
T1 sequence (O15244 1-555): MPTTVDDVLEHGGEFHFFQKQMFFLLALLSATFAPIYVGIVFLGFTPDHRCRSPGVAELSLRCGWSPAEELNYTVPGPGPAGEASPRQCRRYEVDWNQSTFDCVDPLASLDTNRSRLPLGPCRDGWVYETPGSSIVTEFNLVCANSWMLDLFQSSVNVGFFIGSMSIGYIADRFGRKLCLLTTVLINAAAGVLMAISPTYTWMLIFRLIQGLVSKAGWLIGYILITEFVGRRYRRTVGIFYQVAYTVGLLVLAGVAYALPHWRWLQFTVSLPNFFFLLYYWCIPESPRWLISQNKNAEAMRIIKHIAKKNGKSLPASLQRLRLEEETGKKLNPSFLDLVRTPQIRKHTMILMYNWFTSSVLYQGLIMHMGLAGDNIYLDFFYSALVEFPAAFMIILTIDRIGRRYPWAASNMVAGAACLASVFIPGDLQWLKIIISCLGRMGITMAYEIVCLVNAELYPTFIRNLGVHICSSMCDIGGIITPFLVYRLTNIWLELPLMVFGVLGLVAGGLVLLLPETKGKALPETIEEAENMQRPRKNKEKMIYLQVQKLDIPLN
Kind of data set: Uptake transporter substrate assay. As to conditions: OCT2 UPT; for Maximum fold accumulation over control: maximum seen at 1 µM and 20 min, n = 3.

In a further data set the target is human MATE2‐K (Homo sapiens, UniProt Q86VL8). Kind of data set: Uptake transporter substrate assay. To be noted: MATE2‐K UPT; for Maximum fold accumulation over control: maximum seen at 2.5 µM and 20 min, n = 3.
Sequence of human MATE2‐K (Q86VL8 1-566 isoform Q86VL8-3): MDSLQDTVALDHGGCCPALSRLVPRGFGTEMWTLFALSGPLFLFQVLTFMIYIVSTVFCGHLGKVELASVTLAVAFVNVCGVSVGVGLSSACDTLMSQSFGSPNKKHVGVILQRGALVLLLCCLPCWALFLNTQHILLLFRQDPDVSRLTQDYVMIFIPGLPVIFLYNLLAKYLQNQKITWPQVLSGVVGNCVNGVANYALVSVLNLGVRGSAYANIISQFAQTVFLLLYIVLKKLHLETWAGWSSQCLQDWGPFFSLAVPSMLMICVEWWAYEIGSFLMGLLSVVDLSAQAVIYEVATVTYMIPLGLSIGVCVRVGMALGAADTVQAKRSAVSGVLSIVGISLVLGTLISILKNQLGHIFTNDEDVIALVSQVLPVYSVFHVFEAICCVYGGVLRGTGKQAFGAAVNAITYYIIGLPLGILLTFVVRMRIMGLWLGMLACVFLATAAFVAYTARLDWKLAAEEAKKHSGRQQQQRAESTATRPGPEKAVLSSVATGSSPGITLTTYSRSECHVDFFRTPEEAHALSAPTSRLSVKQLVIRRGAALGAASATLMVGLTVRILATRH
The target of a further data set is CYP1A2 (Homo sapiens, UniProt P05177). To be noted: read-out: IC50, No preincubation; CYP1A2, pooled HLMs, n = 3.
Sequence of CYP1A2 (P05177 whole entry): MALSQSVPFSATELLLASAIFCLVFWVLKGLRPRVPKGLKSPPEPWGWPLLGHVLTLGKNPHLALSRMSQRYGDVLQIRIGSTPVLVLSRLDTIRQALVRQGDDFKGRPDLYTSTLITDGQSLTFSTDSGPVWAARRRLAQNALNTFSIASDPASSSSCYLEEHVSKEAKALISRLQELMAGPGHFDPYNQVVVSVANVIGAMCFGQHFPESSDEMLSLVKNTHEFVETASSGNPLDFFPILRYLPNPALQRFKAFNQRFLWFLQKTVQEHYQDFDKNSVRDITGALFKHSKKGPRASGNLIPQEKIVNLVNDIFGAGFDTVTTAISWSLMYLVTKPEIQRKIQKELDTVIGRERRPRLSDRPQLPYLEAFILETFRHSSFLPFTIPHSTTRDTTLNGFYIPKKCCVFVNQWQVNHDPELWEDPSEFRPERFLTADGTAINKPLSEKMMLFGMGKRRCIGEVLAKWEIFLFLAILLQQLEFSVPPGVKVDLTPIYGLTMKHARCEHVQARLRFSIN
A further data set has as its target T2, human OAT1 (Homo sapiens, UniProt Q4U2R8).
T2 sequence (Q4U2R8 1-563): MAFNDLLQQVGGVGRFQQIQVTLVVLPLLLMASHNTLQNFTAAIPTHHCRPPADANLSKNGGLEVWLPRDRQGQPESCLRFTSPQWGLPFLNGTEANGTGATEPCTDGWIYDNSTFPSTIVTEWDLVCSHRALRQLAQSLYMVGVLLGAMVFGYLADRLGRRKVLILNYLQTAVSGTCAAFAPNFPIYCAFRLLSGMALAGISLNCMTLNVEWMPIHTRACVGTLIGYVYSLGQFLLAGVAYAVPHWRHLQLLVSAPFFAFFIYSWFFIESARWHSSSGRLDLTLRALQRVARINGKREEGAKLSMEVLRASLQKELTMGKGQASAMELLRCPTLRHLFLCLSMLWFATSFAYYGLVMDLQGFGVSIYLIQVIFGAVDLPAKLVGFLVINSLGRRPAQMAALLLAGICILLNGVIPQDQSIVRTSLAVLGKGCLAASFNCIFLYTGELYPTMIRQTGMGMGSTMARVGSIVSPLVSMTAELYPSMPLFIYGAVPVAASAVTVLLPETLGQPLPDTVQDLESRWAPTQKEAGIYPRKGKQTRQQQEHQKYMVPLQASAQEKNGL
Kind of data set: Uptake transporter substrate assay. As to conditions: OAT1 UPT; for Maximum fold accumulation over control: maximum seen at 2.5 µM and 20 min, n = 3.

Another data set addresses T3, human BCRP (Homo sapiens, UniProt Q9UNQ0).
T3 sequence (Q9UNQ0 1-655): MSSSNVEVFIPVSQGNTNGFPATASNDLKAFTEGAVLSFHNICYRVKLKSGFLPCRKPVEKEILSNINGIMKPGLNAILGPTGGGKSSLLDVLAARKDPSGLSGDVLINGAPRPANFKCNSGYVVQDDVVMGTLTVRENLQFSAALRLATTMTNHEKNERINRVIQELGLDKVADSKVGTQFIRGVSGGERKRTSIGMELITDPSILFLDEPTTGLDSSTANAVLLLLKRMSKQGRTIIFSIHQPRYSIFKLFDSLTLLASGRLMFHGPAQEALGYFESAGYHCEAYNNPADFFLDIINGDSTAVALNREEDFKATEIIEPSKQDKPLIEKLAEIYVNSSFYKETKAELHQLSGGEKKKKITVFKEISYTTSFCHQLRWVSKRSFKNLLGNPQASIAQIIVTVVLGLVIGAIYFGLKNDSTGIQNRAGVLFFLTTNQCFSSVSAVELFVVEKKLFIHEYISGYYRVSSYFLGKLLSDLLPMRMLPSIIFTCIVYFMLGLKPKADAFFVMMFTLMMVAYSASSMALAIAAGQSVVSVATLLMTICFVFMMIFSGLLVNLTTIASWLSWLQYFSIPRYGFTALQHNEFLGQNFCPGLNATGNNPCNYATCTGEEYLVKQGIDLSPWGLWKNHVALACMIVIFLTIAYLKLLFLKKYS
Put plainly: Transporter inhibition, vesicular transport assay.

In another data set the target is T4, human OAT3 (Homo sapiens, UniProt Q8TCC7).
T4 sequence (Q8TCC7 1-542): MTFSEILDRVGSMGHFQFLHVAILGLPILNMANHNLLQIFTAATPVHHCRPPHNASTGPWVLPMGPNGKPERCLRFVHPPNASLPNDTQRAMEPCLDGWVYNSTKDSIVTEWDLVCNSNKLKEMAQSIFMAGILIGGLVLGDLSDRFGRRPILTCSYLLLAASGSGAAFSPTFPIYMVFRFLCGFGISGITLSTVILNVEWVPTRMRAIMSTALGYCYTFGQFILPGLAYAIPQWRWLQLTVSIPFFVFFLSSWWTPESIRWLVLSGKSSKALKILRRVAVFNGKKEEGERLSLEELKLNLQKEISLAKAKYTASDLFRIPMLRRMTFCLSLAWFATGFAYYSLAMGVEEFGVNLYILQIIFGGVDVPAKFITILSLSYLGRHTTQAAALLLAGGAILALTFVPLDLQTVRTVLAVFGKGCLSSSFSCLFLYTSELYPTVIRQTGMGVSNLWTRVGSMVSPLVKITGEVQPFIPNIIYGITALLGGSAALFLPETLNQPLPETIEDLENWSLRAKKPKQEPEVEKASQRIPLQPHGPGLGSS
Put plainly: Uptake transporter substrate assay. To be noted: OAT3 UPT; for Maximum fold accumulation over control: maximum seen at 5 µM and 20 min, n = 3.

Setting [1] is: listed as 6β‐hydroxy‐21‐desacetyl deflazacort.

Entries after “also recorded” stand apart in the source; their conditions may differ. Some results are limits rather than exact numbers.

Sequence of CYP2D6 (P10635 whole entry): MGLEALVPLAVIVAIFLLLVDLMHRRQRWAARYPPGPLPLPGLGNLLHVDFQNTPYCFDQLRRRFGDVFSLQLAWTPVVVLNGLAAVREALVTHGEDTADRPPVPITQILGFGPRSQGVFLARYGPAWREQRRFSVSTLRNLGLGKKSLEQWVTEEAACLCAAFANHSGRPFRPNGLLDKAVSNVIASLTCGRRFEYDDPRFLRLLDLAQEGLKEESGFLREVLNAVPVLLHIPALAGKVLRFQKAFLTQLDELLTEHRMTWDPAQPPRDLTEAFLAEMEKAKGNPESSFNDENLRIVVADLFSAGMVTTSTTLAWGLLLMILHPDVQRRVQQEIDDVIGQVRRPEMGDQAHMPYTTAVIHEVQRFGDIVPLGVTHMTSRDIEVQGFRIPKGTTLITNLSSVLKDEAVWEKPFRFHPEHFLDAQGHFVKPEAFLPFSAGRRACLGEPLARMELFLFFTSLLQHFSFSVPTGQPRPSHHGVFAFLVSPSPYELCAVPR

For orientation: IC50 means the point on the concentration scale where inhibition reaches its midpoint. For `CC1=N[C@]2(C(=O)CO)[C@@H](C[C@H]3[C@@H]4C[C@@H](O)C5=CC(=O)C=C[C@]5(C)[C@H]4[C@@H](O)C[C@@]32C)O1` [6β‐OH‐21‐desDFZ, 6β‐Hydroxy‐21‐desacetyl deflazacort], the half-maximal inhibitory concentration (IC50) at CYP2D6 is more than 50 µM; at CYP2C19 (read-out: IC50, No preincubation, CYP2C19, pooled HLMs, n = 3) it was approximately 50 µM; at CYP1A2, more than 50 µM. For the same molecule, at CYP2C19 (CYP2C19, Cmax 0.34 µM, assumed 100% free), the “estimated plasma Cmax/IC50 ratio” value is 0.007. Further, the Substrate potential result is “not a substrate” on human OCT2; “No” at human OCT2 (setting [1]); “not a substrate” on human MATE2‐K; “No” at human MATE2‐K (setting [1]); “not a substrate” at human OAT1; “No” at human OAT1 (setting [1]). The values for the Substrate potential result at human OAT3 and at human OAT3 (setting [1]) were “appeared to be an in vitro substrate; also recorded: in vitro substrate for human OAT3” and “Yes”, respectively. For the same molecule, the “Maximum fold accumulation over control” value on human OCT2 is 1.32 at 1 µM and 20 min fold; on human MATE2‐K, 1.08 at 2.5 µM and 20 min fold; on human OAT1, 1.15 at 2.5 µM and 20 min fold; on human OAT3, 2.71 fold. Besides, at human BCRP (BCRP VT, n = 3), the “Maximum inhibition at 50 µM” value is given as <20 % of control. Also, at human BCRP (BCRP, up to 50 µM), the “inhibitory interaction with transporter” value is “no inhibitory interaction”. For the same molecule, on human OAT3 (before inhibitor‐reduced accumulation), the “Fold accumulation over control, without inhibitor (inhibitor experiment)” value was found to be 1.75 fold.
As to “[2’-^14C]-6β-hydroxy-21-desacetyl-deflazacort [^14C‐6β‐OH‐21‐desDFZ]”, the “Maximum fold accumulation over control” value on human OCT2 is reported as less than 2 fold; at human MATE2‐K, less than 2 fold; on human OAT1 it was less than 2 fold; at human OAT3, 2.71 fold. Besides, on human OAT3, the Substrate potential result is “is an OAT3 substrate in vitro”. Also, on human OAT3 (with inhibitor probenecid), the “Fold accumulation over control, in the presence of OAT3 inhibitor” value is reported as 1.08 fold.
